Measurements: the supplement of paper PMC4862054
Values joined by “and” are separate entries in the source; they are usually repeats but may differ in a detail not shown here. Equal values may be shown once.

How the values were obtained:
Conditions in all cases: incubation time: 72 h
HCC1143 = experiment: drug sensitivity score (DSS), CellTiter-Blue viability (DSS (AUC-based score)); higher = stronger viability inhibition; extreme values may be limits of the assay
Protocol: (§1)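 DSRT with the CellTiter-Blue (resazurin reduction) viability readout, fluorescence 560/590 nm, 72 h incubation. Plates were normalised to DMSO and benzethonium chloride controls. DSS is computed from the area under the fitted dose-response curve (5 or 9 concentrations).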

SK-BR-3 = experiment: as above
Protocol: as §1

MDA-MB-453 [1] = experiment: as above
Protocol: as §1

CAL-85-1 [2] = experiment: as above
Protocol: as §1

MFM-223 = experiment: as above
Protocol: as §1

Hs578T = experiment: as above
Protocol: as §1

MDA-MB-468 = experiment: as above
Protocol: as §1

CAL-51 [3] = experiment: as above
Protocol: as §1

DU-4475 [4] = experiment: as above
Protocol: as §1

HCC1937 = experiment: as above
Protocol: as §1

BT-549 = experiment: as above
Protocol: as §1

MDA-MB-436 [5] = experiment: as above
Protocol: as §1

HDQ-P1 [6] = experiment: as above
Protocol: as §1

MDA-MB-231 = experiment: as above
Protocol: as §1

BT-474 = experiment: as above
Protocol: as §1

CAL-120 = experiment: as above
Protocol: as §1

CAL-148 [7] = experiment: as above
Protocol: as §1

HCC1599 [8] = experiment: as above
Protocol: as §1

MDA-MB-436 [9] = experiment: normalised viability (% of control), CellTiter-Blue; higher = more viable cells (about 100 = DMSO control)
Procedure, shortened: (§2)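 After 72 h on compound-loaded 384-well plates, breast cancer cell lines received 2.5 µl CellTiter-Blue reagent for 2 h at 37 °C. Fluorescence at 560/590 nm was scaled per plate so that vehicle was 100 and a positive kill control was 0. The value stands for normalised viability at a single listed concentration of the series.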

HCC1599 [10] = experiment: as above
Procedure, shortened: as §2

MDA-MB-453 [11] = experiment: normalised viability (% of control), CellTiter-Blue; higher = more viable cells (about 100 = DMSO control)
Protocol: (§3)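 DSRT, CellTiter-Blue viability, 72 h incubation. Signal is normalised to DMSO and benzethonium chloride controls. Value is the normalised response at dose 7.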

CAL-85-1 [12] = experiment: as above
Protocol: as §3

CAL-51 [13] = experiment: as above
Protocol: as §3

DU-4475 [14] = experiment: as above
Protocol: as §3

HDQ-P1 [15] = experiment: as above
Protocol: as §3

CAL-148 [16] = experiment: as above
Protocol: as §3

## COc1cc(F)c(F)c(Nc2ccc(I)cc2F)c1NS(=O)(=O)C1(C[C@H](O)CO)CC1 [RDEA119]
HCC1143
  drug sensitivity score: 8.17
SK-BR-3
  drug sensitivity score: 0
MDA-MB-453 [1]
  drug sensitivity score: 5.64
CAL-85-1 [2]
  drug sensitivity score: 10.3
MFM-223
  drug sensitivity score: 5.52
Hs578T
  drug sensitivity score: 8.25
MDA-MB-468
  drug sensitivity score: 4.71
CAL-51 [3]
  drug sensitivity score: 6.65
DU-4475 [4]
  drug sensitivity score: 28.1
HCC1937
  drug sensitivity score: 5.85
BT-549
  drug sensitivity score: 0
MDA-MB-436 [5]
  drug sensitivity score: 0
HDQ-P1 [6]
  drug sensitivity score: 11.4
MDA-MB-231
  drug sensitivity score: 18.7
BT-474
  drug sensitivity score: 0
CAL-120
  drug sensitivity score: 7.36
CAL-148 [7]
  drug sensitivity score: 0
HCC1599 [8]
  drug sensitivity score: 0
MDA-MB-436 [9]; 10 nM
  normalised viability: 93.3%
MDA-MB-436 [9]; 1000 nM
  normalised viability: 103%
MDA-MB-436 [9]; 10000 nM
  normalised viability: 84.6%
HCC1599 [10]; 10 nM
  normalised viability: 92.5%
HCC1599 [10]; 1000 nM
  normalised viability: 78.6%
HCC1599 [10]; 10000 nM
  normalised viability: 82%

## CC(C)(C)c1cnc(CSc2cnc(NC(=O)C3CCNCC3)s2)o1 [SNS-032] (1000 nM)
MDA-MB-453 [11]
  normalised viability: 11.2%
CAL-85-1 [12]
  normalised viability: 2.84%
CAL-51 [13]
  normalised viability: 31.5%
DU-4475 [14]
  normalised viability: 2.63%
HDQ-P1 [15]
  normalised viability: 12.6%
CAL-148 [16]
  normalised viability: 18.8%

## Nc1ncn([C@@H]2O[C@H](CO)[C@@H](O)[C@H]2O)c(=O)n1 [Azacitidine] (1000 nM)
MDA-MB-453 [11]
  normalised viability: 98.9%
CAL-85-1 [12]
  normalised viability: 91.4%
CAL-51 [13]
  normalised viability: 96.7%
DU-4475 [14]
  normalised viability: 116%
HDQ-P1 [15]
  normalised viability: 106%
CAL-148 [16]
  normalised viability: 97.3%

## O=C1CN2Cc3c(ccc(Cl)c3Cl)N=C2N1 [Anagrelide]
HCC1143
  drug sensitivity score: 0
SK-BR-3
  drug sensitivity score: 0
MDA-MB-453 [1]
  drug sensitivity score: 0
CAL-85-1 [2]
  drug sensitivity score: 0
MFM-223
  drug sensitivity score: 0
Hs578T
  drug sensitivity score: 0
MDA-MB-468
  drug sensitivity score: 0
CAL-51 [3]
  drug sensitivity score: 4.77
DU-4475 [4]
  drug sensitivity score: 0
HCC1937
  drug sensitivity score: 2.41
BT-549
  drug sensitivity score: 0
MDA-MB-436 [5]
  drug sensitivity score: 0
HDQ-P1 [6]
  drug sensitivity score: 0
MDA-MB-231
  drug sensitivity score: 0
BT-474
  drug sensitivity score: 0
CAL-120
  drug sensitivity score: 0
CAL-148 [7]
  drug sensitivity score: 0
HCC1599 [8]
  drug sensitivity score: 0
MDA-MB-436 [9]; 10 nM
  normalised viability: 79.2%
MDA-MB-436 [9]; 1000 nM
  normalised viability: 97%
MDA-MB-436 [9]; 10000 nM
  normalised viability: 99%
HCC1599 [10]; 10 nM
  normalised viability: 112%
HCC1599 [10]; 1000 nM
  normalised viability: 93.1%
HCC1599 [10]; 10000 nM
  normalised viability: 89.3%

## Cn1cnc2c(F)c(Nc3ccc(Br)cc3Cl)c(C(=O)NOCCO)cc21 [Selumetinib]
HCC1143
  drug sensitivity score: 12.6
SK-BR-3
  drug sensitivity score: 0
MDA-MB-453 [1]
  drug sensitivity score: 0
CAL-85-1 [2]
  drug sensitivity score: 6.78
MFM-223
  drug sensitivity score: 0
Hs578T
  drug sensitivity score: 1.17
MDA-MB-468
  drug sensitivity score: 0
CAL-51 [3]
  drug sensitivity score: 0.877
DU-4475 [4]
  drug sensitivity score: 25.4
HCC1937
  drug sensitivity score: 2.95
BT-549
  drug sensitivity score: 0
MDA-MB-436 [5]
  drug sensitivity score: 0
HDQ-P1 [6]
  drug sensitivity score: 4.32
MDA-MB-231
  drug sensitivity score: 13.7
BT-474
  drug sensitivity score: 0
CAL-120
  drug sensitivity score: 0.649
CAL-148 [7]
  drug sensitivity score: 0
HCC1599 [8]
  drug sensitivity score: 3.63
MDA-MB-436 [9]; 10 nM
  normalised viability: 113%
MDA-MB-436 [9]; 1000 nM
  normalised viability: 59.8%
MDA-MB-436 [9]; 10000 nM
  normalised viability: 101%
HCC1599 [10]; 10 nM
  normalised viability: 112%
HCC1599 [10]; 1000 nM
  normalised viability: 78.3%
HCC1599 [10]; 10000 nM
  normalised viability: 76.3%

## O=C1CN2Cc3c(ccc(Cl)c3Cl)N=C2N1 [Anagrelide] (1000 nM)
MDA-MB-453 [11]
  normalised viability: 103%
CAL-85-1 [12]
  normalised viability: 86.1%
CAL-51 [13]
  normalised viability: 73.6%
DU-4475 [14]
  normalised viability: 113%
HDQ-P1 [15]
  normalised viability: 105%
CAL-148 [16]
  normalised viability: 104%

## CC1(C)CNc2cc(NC(=O)c3cccnc3NCc3ccncc3)ccc21 [Motesanib] (1000 nM)
MDA-MB-453 [11]
  normalised viability: 75.4%
CAL-85-1 [12]
  normalised viability: 79.8%
CAL-51 [13]
  normalised viability: 105%
DU-4475 [14]
  normalised viability: 99.5%
HDQ-P1 [15]
  normalised viability: 78.1%
CAL-148 [16]
  normalised viability: 90.3%

## Oc1ncnc2[nH]ncc12 [Allopurinol] (1000 nM)
MDA-MB-453 [11]
  normalised viability: 100%
CAL-85-1 [12]
  normalised viability: 96.3%
CAL-51 [13]
  normalised viability: 91.5%
DU-4475 [14]
  normalised viability: 109%
HDQ-P1 [15]
  normalised viability: 88%
CAL-148 [16]
  normalised viability: 124%

## Nc1nc2[nH]cnc2c(=S)[nH]1 [Thioguanine] (1000 nM)
MDA-MB-453 [11]
  normalised viability: 95.2%
CAL-85-1 [12]
  normalised viability: 79.2%
CAL-51 [13]
  normalised viability: 108%
DU-4475 [14]
  normalised viability: 117%
HDQ-P1 [15]
  normalised viability: 85.2%
CAL-148 [16]
  normalised viability: 93.4%

## Cc1sc2c(c1C)C(c1ccc(Cl)cc1)=N[C@@H](CC(=O)OC(C)(C)C)c1nnc(C)n1-2 [(+)JQ1] (1000 nM)
MDA-MB-453 [11]
  normalised viability: 21.9%
CAL-85-1 [12]
  normalised viability: 56.7%
CAL-51 [13]
  normalised viability: 84.1%
DU-4475 [14]
  normalised viability: 12.4%
HDQ-P1 [15]
  normalised viability: 106%
CAL-148 [16]
  normalised viability: 56.5%

## CC[C@@H]1C(=O)OC[C@@H]1Cc1cncn1C [Pilocarpine] (4000 nM)
MDA-MB-453 [11]
  normalised viability: 101%
CAL-85-1 [12]
  normalised viability: 89.5%
CAL-51 [13]
  normalised viability: 108%
DU-4475 [14]
  normalised viability: 95.5%
HDQ-P1 [15]
  normalised viability: 121%
CAL-148 [16]
  normalised viability: 101%

## CC1=C2C[C@H]3[C@@H](CC=C4C[C@@H](O)CC[C@@]43C)[C@@H]2CC[C@]12O[C@@H]1C[C@H](C)CN[C@H]1[C@H]2C [Cyclopamine] (1000 nM)
MDA-MB-453 [11]
  normalised viability: 86.8%
CAL-85-1 [12]
  normalised viability: 92.2%
CAL-51 [13]
  normalised viability: 110%
DU-4475 [14]
  normalised viability: 121%
HDQ-P1 [15]
  normalised viability: 127%
CAL-148 [16]
  normalised viability: 119%

## CC(=O)O[C@@]12CO[C@@H]1C[C@H](O)[C@@]1(C)C(=O)[C@H](O)C3=C(C)[C@@H](OC(=O)[C@H](O)[C@@H](NC(=O)OC(C)(C)C)c4ccccc4)C[C@@](O)([C@@H](OC(=O)c4ccccc4)[C@H]21)C3(C)C [Docetaxel] (100 nM)
MDA-MB-453 [11]
  normalised viability: 26.2% and 23.4%
CAL-85-1 [12]
  normalised viability: 32.9% and 29.5%
CAL-51 [13]
  normalised viability: 18.2% and 13.8%
DU-4475 [14]
  normalised viability: 13.8% and 9.08%
HDQ-P1 [15]
  normalised viability: 34.2% and 38%
CAL-148 [16]
  normalised viability: 22.7% and 19.8%
